# Experimental data from the supplement of paper PMC9663587.
# Columns and labels:
# [1] = compound: CC(=O)c1c(C)c2cnc(Nc3ccc(N4CCNCC4)cn3)nc2n(C2CCCC2)c1=O; assay: increase in dead-cell fraction, 72 h; higher = more death;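 note: breast cancer cell lines in 384-well plates, stained with Hoechst plus LIVE/DEAD far red dye and imaged, cells above an LDR intensity threshold counted dead, Hoechst-negative corpses included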
# [2] = compound: CCN1CCN(Cc2ccc(Nc3ncc(F)c(-c4cc(F)c5nc(C)n(C(C)C)c5c4)n3)nc2)CC1; assay: as above
# [3] = compound: T1, CCOc1cc2ncc(C#N)c(Nc3ccc(OCc4ccccn4)c(Cl)c3)c2cc1NC(=O)/C=C/CN(C)C [Neratinib/HKI272]; assay: as above
# [4] = compound: CCc1cnn2c(NCc3ccc[n+]([O-])c3)cc(N3CCCC[C@H]3CCO)nc12; assay: as above
# [5] = compound: T1, Neratinib/HKI272; assay: GR value, 72 h; higher = faster growth (1 = untreated, <0 = killing);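 note: breast cancer and non-malignant breast epithelial lines, nine half-log doses, viable cells counted by Hoechst and LIVE/DEAD dye imaging versus time-zero plates and DMSO controls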
# [6] = compound: C=CC(=O)Nc1ccc(C(=O)Nc2[nH]nc3c2CN(C(=O)N[C@H](CN(C)C)c2ccccc2)C3(C)C)cc1 [YKL-5-124]; assay: increase in dead-cell fraction, 72 h; higher = more death;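 note: breast cancer cell lines in 384-well plates, stained with Hoechst plus LIVE/DEAD far red dye and imaged, cells above an LDR intensity threshold counted dead, Hoechst-negative corpses included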
# [7] = compound: CC(=O)c1c(C)c2cnc(Nc3ccc(N4CCN(CCOCCOCCOCCNC(=O)COc5cccc6c5C(=O)N(C5CCC(=O)NC5=O)C6=O)CC4)cn3)nc2n(C2CCCC2)c1=O [BSJ-03-123]; assay: as above
# [8] = compound: CN(C)C(=O)c1cc2cnc(Nc3ccc(N4CCNCC4)cn3)nc2n1C1CCCC1 [LEE011/Ribociclib]; assay: as above
# [9] = compound: CN(C)C/C=C/C(=O)Nc1ccc(C(=O)N2CCC[C@@H](Nc3ncc(Cl)c(-c4c[nH]c5ccccc45)n3)C2)cc1 [THZ531]; assay: as above
# [10] = compound: CN(C)C/C=C/C(=O)Nc1ccc(C(=O)Nc2cccc(Nc3ncc(Cl)c(-c4c[nH]c5ccccc45)n3)c2)cc1 [THZ1]; assay: as above
# [11] = compound: T2, CN1CC[C@H](c2c(O)cc(O)c3c(=O)cc(-c4ccccc4Cl)oc23)[C@H](O)C1 [Flavopiridol]; assay: as above
# [12] = compound: T2, Flavopiridol; assay: GR value, 72 h; higher = faster growth (1 = untreated, <0 = killing);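 note: breast cancer and non-malignant breast epithelial lines, nine half-log doses, viable cells counted by Hoechst and LIVE/DEAD dye imaging versus time-zero plates and DMSO controls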
cell line,measurement,setting,value
HCC1500,increase in dead-cell fraction,[1]; 0.0003162 µM,-0.0019
same,increase in dead-cell fraction,[1]; 0.001 µM,0.0086
same,increase in dead-cell fraction,[1]; 0.003162 µM,-0.0112
same,increase in dead-cell fraction,[1]; 0.01 µM,0.0091
same,increase in dead-cell fraction,[1]; 0.03162 µM,0.0038
same,increase in dead-cell fraction,[1]; 0.1 µM,0.019
same,increase in dead-cell fraction,[1]; 0.3162 µM,0.0086
same,increase in dead-cell fraction,[1]; 1 µM,0.009
same,increase in dead-cell fraction,[1]; 3.162 µM,0.0027
same,increase in dead-cell fraction,[2]; 0.001 µM,-0.0021
same,increase in dead-cell fraction,[2]; 0.003162 µM,-0.0174
same,increase in dead-cell fraction,[2]; 0.01 µM,-0.0129
same,increase in dead-cell fraction,[2]; 0.03162 µM,-0.0035
same,increase in dead-cell fraction,[2]; 0.1 µM,-0.0151
same,increase in dead-cell fraction,[2]; 0.3162 µM,-0.0201
same,increase in dead-cell fraction,[2]; 1 µM,-0.015
same,increase in dead-cell fraction,[2]; 3.162 µM,-0.0276
same,increase in dead-cell fraction,[2]; 10 µM,0.0351
same,increase in dead-cell fraction,[3]; 0.0003162 µM,0.0116
same,increase in dead-cell fraction,[3]; 0.001 µM,-0.0067
same,increase in dead-cell fraction,[3]; 0.003162 µM,0.017
same,increase in dead-cell fraction,[3]; 0.01 µM,-0.0012
same,increase in dead-cell fraction,[3]; 0.03162 µM,0.0316
same,increase in dead-cell fraction,[3]; 0.1 µM,0.0224
same,increase in dead-cell fraction,[3]; 0.3162 µM,0.0504
same,increase in dead-cell fraction,[3]; 1 µM,0.0834
same,increase in dead-cell fraction,[3]; 3.162 µM,0.331
same,increase in dead-cell fraction,[4]; 0.0001 µM,0.0119
same,increase in dead-cell fraction,[4]; 0.0003162 µM,-0.0049
same,increase in dead-cell fraction,[4]; 0.001 µM,0.0055
same,increase in dead-cell fraction,[4]; 0.003162 µM,0.0001
same,increase in dead-cell fraction,[4]; 0.01 µM,0.0467
same,increase in dead-cell fraction,[4]; 0.03162 µM,0.285
same,increase in dead-cell fraction,[4]; 0.1 µM,0.499
same,increase in dead-cell fraction,[4]; 0.3162 µM,0.456
same,increase in dead-cell fraction,[4]; 1 µM,0.476
same,GR value,[5]; 0.0003162 µM,1.03 GR
same,GR value,[5]; 0.001 µM,1.13 GR
same,GR value,[5]; 0.003162 µM,1.01 GR
same,GR value,[5]; 0.01 µM,1.02 GR
same,GR value,[5]; 0.03162 µM,0.915 GR
same,GR value,[5]; 0.1 µM,0.889 GR
same,GR value,[5]; 0.3162 µM,0.793 GR
same,GR value,[5]; 1 µM,0.416 GR
same,GR value,[5]; 3.162 µM,-0.245 GR
MCF10A (GM),increase in dead-cell fraction,[6]; 0.001 µM,0.22
same,increase in dead-cell fraction,[6]; 0.003162 µM,0.329
same,increase in dead-cell fraction,[6]; 0.01 µM,0.363
same,increase in dead-cell fraction,[6]; 0.03162 µM,0.249
same,increase in dead-cell fraction,[6]; 0.1 µM,0.226
same,increase in dead-cell fraction,[6]; 0.3162 µM,0.293
same,increase in dead-cell fraction,[6]; 1 µM,0.263
same,increase in dead-cell fraction,[6]; 3.162 µM,0.218
same,increase in dead-cell fraction,[6]; 10 µM,0.391
same,increase in dead-cell fraction,[7]; 0.001 µM,0.0019
same,increase in dead-cell fraction,[7]; 0.003162 µM,-0.0004
same,increase in dead-cell fraction,[7]; 0.01 µM,0.0026
same,increase in dead-cell fraction,[7]; 0.03162 µM,0.0037
same,increase in dead-cell fraction,[7]; 0.1 µM,0.0042
same,increase in dead-cell fraction,[7]; 0.3162 µM,0.0033
same,increase in dead-cell fraction,[7]; 1 µM,0.0209
same,increase in dead-cell fraction,[7]; 3.162 µM,0.0255
same,increase in dead-cell fraction,[7]; 10 µM,0.455
same,increase in dead-cell fraction,[8]; 0.001 µM,0.0013
same,increase in dead-cell fraction,[8]; 0.003162 µM,0.0004
same,increase in dead-cell fraction,[8]; 0.01 µM,0.002
same,increase in dead-cell fraction,[8]; 0.03162 µM,0.0019
same,increase in dead-cell fraction,[8]; 0.1 µM,0.0026
same,increase in dead-cell fraction,[8]; 0.3162 µM,0.0035
same,increase in dead-cell fraction,[8]; 1 µM,0.0035
same,increase in dead-cell fraction,[8]; 3.162 µM,0.0073
same,increase in dead-cell fraction,[8]; 10 µM,0.0229
same,increase in dead-cell fraction,[9]; 0.0001 µM,0.0026
same,increase in dead-cell fraction,[9]; 0.0003162 µM,0.0015
same,increase in dead-cell fraction,[9]; 0.001 µM,-0.0008
same,increase in dead-cell fraction,[9]; 0.003162 µM,-0.0019
same,increase in dead-cell fraction,[9]; 0.01 µM,0.0006
same,increase in dead-cell fraction,[9]; 0.03162 µM,0.0017
same,increase in dead-cell fraction,[9]; 0.1 µM,0.0028
same,increase in dead-cell fraction,[9]; 0.3162 µM,0.0137
same,increase in dead-cell fraction,[9]; 1 µM,0.62
same,increase in dead-cell fraction,[10]; 0.0001 µM,-0.0002
same,increase in dead-cell fraction,[10]; 0.0003162 µM,-0.0005
same,increase in dead-cell fraction,[10]; 0.001 µM,-0.0015
same,increase in dead-cell fraction,[10]; 0.003162 µM,0.0003
same,increase in dead-cell fraction,[10]; 0.01 µM,0.0067
same,increase in dead-cell fraction,[10]; 0.03162 µM,0.127
same,increase in dead-cell fraction,[10]; 0.1 µM,0.225
same,increase in dead-cell fraction,[10]; 0.3162 µM,0.256
same,increase in dead-cell fraction,[10]; 1 µM,0.61
same,increase in dead-cell fraction,[11]; 0.0001 µM,-0.0007
same,increase in dead-cell fraction,[11]; 0.0003162 µM,-0.0019
same,increase in dead-cell fraction,[11]; 0.001 µM,-0.0004
same,increase in dead-cell fraction,[11]; 0.003162 µM,-0.0003
same,increase in dead-cell fraction,[11]; 0.01 µM,0.0027
same,increase in dead-cell fraction,[11]; 0.03162 µM,0.0152
same,increase in dead-cell fraction,[11]; 0.1 µM,0.0701
same,increase in dead-cell fraction,[11]; 0.3162 µM,0.491
same,increase in dead-cell fraction,[11]; 1 µM,0.66
same,GR value,[12]; 0.0001 µM,1 GR
same,GR value,[12]; 0.0003162 µM,1.01 GR
same,GR value,[12]; 0.001 µM,1.01 GR
same,GR value,[12]; 0.003162 µM,0.996 GR
same,GR value,[12]; 0.01 µM,0.962 GR
same,GR value,[12]; 0.03162 µM,0.842 GR
same,GR value,[12]; 0.1 µM,0.557 GR
same,GR value,[12]; 0.3162 µM,-0.244 GR
same,GR value,[12]; 1 µM,-0.319 GR
